Source: patent publication US7276604B2, “Crystalline form of the sodium salt of 3-pyridyl-1-hydroxyethylidene-1,1-bisphosphonic acid” (Zentiva A.S., priority 2002, dated 2007)
Counter-ions that a name gives are not always drawn.

What was measured:
Assay type in all cases: physicochemical
[1] = Drying in vacuum oven and re-uptake of water (stability of water content, Karl Fischer / TGA); conditions: for water content after standing at 100% relative air humidity: within two hours; for hygroscopicity of the dried product: after drying in a vacuum oven
From the text: An useful example of such a hydrate is a modification that is characterized by water content 20 up to 23%, specially with 22.8 w. % of water, and sodium content 5.5 up to 7.5%, specially 6.4 up to 6.7 w. %. The specified water content is built in the crystal lattice and the mentioned crystalline modification is thermodynamically stable. By drying with several different drying regimes, the mentioned crystalline modification was dried to the water content corresponding to the pentahemihydrate, the monohydrate and the anhydrous form of sodium 3-pyridyl-1-hydroxyethylidene-1,1-bisphosphonate. When the substance is left standing on the air, the water content stabilizes spontaneously at the original level. Time that it takes for the water content to stabilize depends on relative humidity in the environment in which the dried substance is placed.
(§1) Water content in the substance was determined using a method according to Karl Fischer and TGA analyses. Sodium content in the substance was determined using acidobasic titration and AAS. Solubility tests were performed according to the Technical Guide European Pharmacopeia.
The dried product is hygroscopic. If the substance is left standing at room temperature and usual relative air humidity, the water content returns to the original level within 12 hours.
In the pentahydrate dried in a vacuum oven at 105° C., the substance's water content decreases to 3% after six hours. The dried product is hygroscopic. If the substance is left standing at room temperature and usual relative air humidity, the water content increases with a speed of about 0.5% an hour. Within 11 days, the substance's water content returns to about 20 weight %.
(§2) In trihydrate of the trisodium salt dried in a vacuum oven at 105° C., the substance's water content decreases to 1.1% after 6 hours. The dried product is hygroscopic. If the substance is placed in an environment with 100% relative air humidity, the water content returns to the original level within two hours.
as §2, with “disodium” for “trisodium”, “approximately 1.7%” for “1.1%”, “the” for “the original”, “level of approximately 5.2%” for “level”

[2] = Solubility test in water (Technical Guide European Pharmacopeia); conditions: for dissolution observed: 0.1, 0.9 and 2.0 ml added gradually, 25° C. for 15 min; for proportion of the dissolved substance: 3.0 ml added in total to about 100 mg, 25° C., HPLC
Experimental: as §1
(§3) 0.1 ml; 0.9 ml and 2.0 ml of water were gradually added to a 100.25 mg sample of risedronate monosodium salt pentahemihydrate. The suspension was mixed for about 1 min and tempered to 25° C. for 15 min after each addition of water. […] The proportion of the dissolved substance was determined to be 100% using HPLC.
as §3, with “98.78” for “100.25”, “pentahydrate.” for “pentahemihydrate.”

[3] = Solubility test in 0.1 M HCl with pH 1.1 (Technical Guide European Pharmacopeia); conditions: for dissolution observed: 0.1 M HCl pH 1.1, 0.1, 0.9, 2.0 and 7.0 ml added gradually, 25° C. for 15 min; for proportion of the dissolved substance: 0.1 M HCl pH 1.1, 10.0 ml added in total to about 100 mg, 25° C., HPLC
Experimental: as §1
(§4) 0.1 ml; 0.9 ml, 2.0 and 7.0 ml of 0.1 M HCl with pH 1.1 were gradually added to a 106.8 mg sample of risedronate monosodium salt pentahemihydrate. The suspension was mixed for 1 min and tempered to 25° C. for 15 min after each addition of acid. […] The proportion of the dissolved substance was determined to be 9.46% using HPLC.
as §4, with “99.07” for “106.8”, “pentahydrate.” for “pentahemihydrate.”, “31.62%” for “9.46%”

[4] = after drying at 105° C., 100% relative air humidity
[5] = vacuum oven at 105° C., after 6 hours

Row | Compound | dissolution observed [2] | proportion of the dissolved substance [2] | dissolution observed [3] | proportion of the dissolved substance [3] | hygroscopicity of the dried product [1] | water content after drying [1, 5] | also measured
1 | O=P(O)(O)C(O)(Cc1cccnc1)P(=O)(O)O [Risedronate disodium salt monohydrate, disodium 3-pyridyl-1-hydroxyethylidene-1,1-bisphosphonate] | – | – | – | – | – | – | water content after standing at 100% relative air humidity ([1]; after drying at 105° C., 100% relative air humidity, listed as trihydrate of the disodium salt): approximately 5.2%; period in which the water content mostly stabilizes at the given value ([1]; dried at different conditions, then high relative humidity, 'mostly'): less than 12 hours; water content after drying ([1]; vacuum oven at 105° C., after 6 hours, listed as trihydrate of the disodium salt): approximately 1.7%
2 | O=P(O)(O)C(O)(Cc1cccnc1)P(=O)(O)O [risedronate monosodium salt pentahemihydrate] [monosodium 3-pyridyl-1-hydroxyethylidene-1,1-bisphosphonate, reference compound] | completely dissolved | 100% | did not dissolve completely | 9.46% | – | – | –
3 | O=P(O)(O)C(O)(Cc1cccnc1)P(=O)(O)O [risedronate monosodium salt pentahydrate, monosodium 3-pyridyl-1-hydroxyethylidene-1,1-bisphosphonate] | completely dissolved | 100% | did not dissolve completely | 31.62% | hygroscopic | 3% | solubility in 0.1 M hydrochloric acid compared with the pentahemihydrate form ([3]; 0.1 M HCl pH 1.1): significantly more soluble; time for water content to return to the original level ([1]; after drying at 50° C., room temperature and usual relative air humidity): ≤ 12 h; water content after standing at 100% relative air humidity [1, 4]: 22.7%; speed of water content increase ([1]; after drying at 105° C., room temperature and usual relative air humidity): about 0.5 % an hour; water content after standing ([1]; after drying at 105° C., room temperature and usual relative air humidity, within 11 days): about 20 weight %; stability of the regained water content ([1]; usual lab conditions): stable and does not change; water content after drying ([1]; vacuum oven at 50° C., after six hours): 11.5%
4 | O=P(O)(O)C(O)(Cc1cccnc1)P(=O)(O)O [trihydrate of the trisodium salt, trisodium 3-pyridyl-1-hydroxyethylidene-1,1-bisphosphonate] | – | – | – | – | hygroscopic | 1.1% | time for water content to return to the original level [1, 4]: two
